These results are taken from ChEMBL document CHEMBL1130416, “Synthesis and biological activities of (R)-5,6-dihydro-N,N-dimethyl-4H-imidazo[4,5,1-ij]quinolin-5-amine and its metabolites” (J Med Chem, 1997).

Series [1] is filed under the species Canis familiaris. Description: Metabolism of compound in dog S9 microsomes; Trace. The format is ADME, Canis lupus familiaris.
Series [2] is described as follows: Metabolism of compound in monkey S9 microsomes ('++++' indicates largest observed peak). The following applies: cercopithecidae. It counts as ADME, Microsome.
The nature of series [3]: Metabolism of compound in human liver slices (male) ('++''indicates 20-50% largest observed peak). It counts as ADME, tissue-based.
The nature of series [4]: Metabolism of compound in human microsomes; Trace. The format is ADME, Microsome.
The species entered for series [5] is Mus musculus. Nature of the series: Metabolism of compound in mouse S9 microsomes ('++++' indicates largest observed peak). The format is ADME.
A short description of series [6]: Metabolism of compound in mini pig S9 microsomes ('+''indicates <20% largest observed peak). It counts as ADME, Sus scrofa, Microsome.
Series [7] addresses T1, D(2) dopamine receptor (Homo sapiens, UniProt P14416).
Description: Binding affinity towards Dopamine receptor D2 by displacement of [3H]U-86170.
Series [8] addresses T2, D(3) dopamine receptor (Homo sapiens, UniProt P35462).
Description: Binding affinity towards Dopamine receptor D3 by displacement of [3H](+)-7-OH-DPAT.
Series [9] concerns Mus musculus. Description: Hypothermic effects in mice when administered orally. It counts as functional. The following applies: po.
Series [10] deals with Mus musculus. Nature of the series: Hypothermic effects in mice when administered subcutaneously. It counts as functional. The conditions noted are these: sc.
The species named for series [11] is Rattus norvegicus. Nature of the series: Metabolism of compound in rat S9 microsomes ('+''indicates <20% largest observed peak). The format is ADME.
A short description of series [12]: Metabolism of compound in rabbit S9 microsomes ('++++' indicates largest observed peak). The format is ADME, Oryctolagus cuniculus, Microsome.
Series [13] concerns the target T3, 5-hydroxytryptamine receptor 1A (Homo sapiens, UniProt P08908).
T3 sequence (P08908 whole entry): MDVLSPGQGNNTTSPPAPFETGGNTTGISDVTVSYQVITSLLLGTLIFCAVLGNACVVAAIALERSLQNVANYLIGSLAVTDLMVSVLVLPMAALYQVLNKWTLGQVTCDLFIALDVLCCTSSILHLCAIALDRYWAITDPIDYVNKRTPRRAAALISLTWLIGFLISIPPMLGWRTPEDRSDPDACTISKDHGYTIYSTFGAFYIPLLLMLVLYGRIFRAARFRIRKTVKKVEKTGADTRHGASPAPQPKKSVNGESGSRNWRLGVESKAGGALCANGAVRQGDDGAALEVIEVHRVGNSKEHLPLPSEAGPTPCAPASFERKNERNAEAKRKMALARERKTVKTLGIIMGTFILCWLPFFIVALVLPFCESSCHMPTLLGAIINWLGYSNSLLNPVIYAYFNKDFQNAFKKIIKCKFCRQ
Description: Binding affinity towards Serotonin 5-hydroxytryptamine 1A receptor by displacement of [3H]-(+)-8-OH-DPAT.

For series [14], the species on record is Canis familiaris. Nature of the series: Metabolism of compound in dog S9 microsomes ('++++' indicates largest observed peak). The format is ADME, Canis lupus familiaris.
Series [15] is described as follows: Metabolism of compound in monkey S9 microsomes ('+++'indicates 50-80% largest observed peak). The format is ADME, Microsome. The following applies: cercopithecidae.
Series [16] in a line: Metabolism of compound in human liver slices (male) ('++++' indicates largest observed peak). It counts as ADME, tissue-based.
The nature of series [17]: Metabolism of compound in human microsomes ('++++' indicates largest observed peak). The format is ADME, Microsome.
Series [18] is filed under the species Mus musculus. Nature of the series: Metabolism of compound in Mouse S9 microsomes ('++++'indicates largest observed peak). It counts as ADME.
The species entered for series [19] is Rattus norvegicus. Nature of the series: Metabolism of compound in rat S9 microsomes ('++++' indicates largest observed peak). It counts as ADME.
Series [20] is described as follows: Metabolism of compound in rabbit S9 microsomes ('+''indicates <20% largest observed peak). The format is ADME, Oryctolagus cuniculus, Microsome.
A short description of series [21]: Metabolism of compound in mini pig S9 microsomes ('++++' indicates largest observed peak). It counts as ADME, Sus scrofa, Microsome.
For series [22], the species on record is Rattus norvegicus. Description: The stability relative to the U-93385 compound.
The target in series [23] is T3, 5-hydroxytryptamine receptor 1A. This is another data set of the same source.
Series [24] addresses T1, D(2) dopamine receptor. This is another data set of the same source.
Series [25] addresses T2, D(3) dopamine receptor. The source holds these as a separate data set.
The species named for series [26] is Canis familiaris. Nature of the series: Metabolism of compound in dog S9 microsomes ('++''indicates 20-50% largest observed peak). The format is ADME, Canis lupus familiaris.
Series [27] is described as follows: Metabolism of compound in monkey S9 microsomes ('++''indicates 20-50% largest observed peak). The format is ADME, Microsome. The following applies: cercopithecidae.
Series [28] can be described thus: Metabolism of compound in human microsomes ('+''indicates <20% largest observed peak). It counts as ADME, Microsome.
Series [29] is filed under the species Mus musculus. Description: Metabolism of compound in mouse S9 microsomes ('+''indicates <20% largest observed peak). The format is ADME.
A short description of series [30]: Metabolism of compound in monkey S9 microsomes ('+''indicates <20% largest observed peak). It counts as ADME, Microsome. The following applies: cercopithecidae.
Series [31] in a line: Metabolism of compound in human liver slices (male) ('+''indicates <20% largest observed peak). The format is ADME, tissue-based.
The species entered for series [32] is Rattus norvegicus. Nature of the series: Metabolism of compound in rat S9 microsomes; Trace. It counts as ADME.

T2 sequence (P35462 whole entry): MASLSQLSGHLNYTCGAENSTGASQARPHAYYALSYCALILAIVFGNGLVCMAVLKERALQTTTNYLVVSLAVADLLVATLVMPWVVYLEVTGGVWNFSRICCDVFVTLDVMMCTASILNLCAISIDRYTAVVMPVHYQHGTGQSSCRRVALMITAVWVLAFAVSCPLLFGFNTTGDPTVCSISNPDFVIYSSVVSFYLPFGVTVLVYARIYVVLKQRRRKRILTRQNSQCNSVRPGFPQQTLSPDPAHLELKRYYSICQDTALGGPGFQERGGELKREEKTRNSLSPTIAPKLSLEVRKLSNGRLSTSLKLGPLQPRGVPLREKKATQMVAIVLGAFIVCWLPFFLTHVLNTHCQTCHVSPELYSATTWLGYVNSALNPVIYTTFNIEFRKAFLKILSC
T1 sequence (P14416 whole entry): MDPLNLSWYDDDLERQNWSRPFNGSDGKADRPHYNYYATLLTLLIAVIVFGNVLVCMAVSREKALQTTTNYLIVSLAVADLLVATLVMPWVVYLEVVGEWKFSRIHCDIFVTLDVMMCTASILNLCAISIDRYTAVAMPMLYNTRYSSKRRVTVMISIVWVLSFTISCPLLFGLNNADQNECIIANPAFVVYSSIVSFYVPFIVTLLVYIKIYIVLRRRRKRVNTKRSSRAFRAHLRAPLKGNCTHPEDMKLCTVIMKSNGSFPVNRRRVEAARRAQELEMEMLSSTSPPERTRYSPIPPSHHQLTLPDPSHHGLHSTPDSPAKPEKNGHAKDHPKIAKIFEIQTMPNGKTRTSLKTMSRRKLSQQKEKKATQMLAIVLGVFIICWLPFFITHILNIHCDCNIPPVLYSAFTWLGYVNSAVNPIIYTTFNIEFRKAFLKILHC

On to `CN(C)[C@@H]1Cc2cccc3[nH]c(=O)n(c23)C1`, for which the Metabolism entry (in the series listed under Canis familiaris [1]; in series [2]; in [3]; in [4]; in the series listed under Mus musculus [5]; in series [6]) was “Partially active” throughout. The Metabolism result (in the series listed under Rattus norvegicus [11]; in [12]) was “Partially active” each time. Further, the inhibition constant Ki (commonly a dissociation constant, usually derived from enzyme kinetics or from competition with a known ligand) was 12 nM at D(2) dopamine receptor [7] and 1930 nM on D(3) dopamine receptor [8]. The 50% effective dose (ED50) (usually the midpoint of the dose-response relation) in the series with Mus musculus [9] was found to be 1.3 mg/kg; in the series on Mus musculus [10], 0.41 mg/kg.

As to `CN(C)[C@@H]1Cc2cccc3ncn(c23)C1`, the figures for the Ki (in [13]; at D(2) dopamine receptor [7]; on D(3) dopamine receptor [8]) were more than 3520 nM, 1280 nM and 2950 nM, respectively. The Metabolism entry (in the series filed under Canis familiaris [14]; in [15]; in series [16]; in series [17]; in the series filed under Mus musculus [18]; in the series listed under Rattus norvegicus [19]) was “Partially active” throughout. The Metabolism entry in [20] and in [21] was “Partially active” in each case. For the same molecule, the ED50 in the series with Mus musculus [9] and in the series on Mus musculus [10] was 0.073 mg/kg each time. This molecule showed a Relative stability in the series listed under Rattus norvegicus [22] of 1.

Regarding `CC(C)C[C@H]1C(=O)N2CCC[C@H]2[C@]2(O)O[C@](NC(=O)[C@@H]3C=C4c5cccc6[nH]c(Br)c(c56)C[C@H]4N(C)C3)(C(C)C)C(=O)N12` [BROMOCRIPTINE], the figures for the inhibitory constant (Ki) (in series [13]; at D(2) dopamine receptor [7]; at D(3) dopamine receptor [8]) were 24 nM, 10 nM and 87 nM, respectively.

In the series on Mus musculus [10], `CN(C)[C@H]1Cc2cccc3ncn(c23)C1` displayed an ED50 of 17.3 mg/kg. In addition, the inhibition constant (Ki) entry (in [23]; on D(2) dopamine receptor [24]; on D(3) dopamine receptor [25]) was “Not Active” throughout.

Consider `CCCN[C@@H]1Cc2cccc3nc(O)n(c23)C1`, for which, on D(3) dopamine receptor [8], the Ki was found to be 36 nM. Moreover, the 50% effective dose (ED50) with Mus musculus [9] came out at 0.41 mg/kg; in the series with Mus musculus [10], 0.01 mg/kg.

On to `CCCN(CCC)CCc1cccc2c1CC(=O)N2` [ROPINIROLE], for which the Ki in series [13] came to 1710 nM; at D(2) dopamine receptor [7] it was 7.2 nM.

On to `CN(C)[C@H]1Cc2cccc3nc(O)n(c23)C1`, for which the ED50 in the series with Mus musculus [10] amounted to 17.3 mg/kg. The Ki result (in series [23]; on D(2) dopamine receptor [24]; on D(3) dopamine receptor [25]) was “Not Active” each time.

Regarding `CN[C@@H]1Cc2cccc3ncn(c23)C1`, the Ki in [13] was more than 3260 nM; on D(2) dopamine receptor [7] it was 355 nM; on D(3) dopamine receptor [8], 2460 nM. Also, the Metabolism entry (in the series filed under Canis familiaris [26]; in series [27]; in series [3]; in series [28]; in the series listed under Mus musculus [29]; in series [20]) was “Partially active” in each case. In addition, the Metabolism result (in series [6]; in the series listed under Rattus norvegicus [11]) was “Partially active” each time. The 50% effective dose (ED50) in the series on Mus musculus [9] was 0.73 mg/kg; in the series on Mus musculus [10] it was 0.31 mg/kg. Moreover, the Relative stability in the series listed under Rattus norvegicus [22] was 0.86.

On to `CN[C@H]1Cc2cccc3nc(O)n(c23)C1`, for which the Ki entry (in series [23]; at D(2) dopamine receptor [24]; at D(3) dopamine receptor [25]) was “Not Active” throughout.

On to `CN[C@@H]1Cc2cccc3[nH]c(=O)n(c23)C1` [SUMANIROLE], for which the Ki was determined as 73 nM in series [13] and 2330 nM at D(3) dopamine receptor [8]. For the same molecule, the Metabolism entry (in [30]; in series [31]; in the series listed under Mus musculus [29]; in the series listed under Rattus norvegicus [32]; in [20]) was “Partially active” throughout. Also, the values for the ED50 with Mus musculus [9] and with Mus musculus [10] were 0.41 mg/kg and 0.73 mg/kg, respectively.
